The results in this text go back to patent US11208412B2 (DAEGU-GYEONGBUK MEDICAL INNOVATION FOUNDATION, priority 2017, dated 2021).

Holding throughout (assay): Kinase selectivity, DiscoverX scanMAX Kinase assay panel (% control)
Assay type in all cases: binding

In test [1] the target is T1, kinases of the scanMAX Kinase assay panel (Homo sapiens, UniProt O95382).
T1 construct: purchased DiscoverX Co. (contract measurement) scanMAX Kinase assay panel
T1 sequence (O95382 1-1288): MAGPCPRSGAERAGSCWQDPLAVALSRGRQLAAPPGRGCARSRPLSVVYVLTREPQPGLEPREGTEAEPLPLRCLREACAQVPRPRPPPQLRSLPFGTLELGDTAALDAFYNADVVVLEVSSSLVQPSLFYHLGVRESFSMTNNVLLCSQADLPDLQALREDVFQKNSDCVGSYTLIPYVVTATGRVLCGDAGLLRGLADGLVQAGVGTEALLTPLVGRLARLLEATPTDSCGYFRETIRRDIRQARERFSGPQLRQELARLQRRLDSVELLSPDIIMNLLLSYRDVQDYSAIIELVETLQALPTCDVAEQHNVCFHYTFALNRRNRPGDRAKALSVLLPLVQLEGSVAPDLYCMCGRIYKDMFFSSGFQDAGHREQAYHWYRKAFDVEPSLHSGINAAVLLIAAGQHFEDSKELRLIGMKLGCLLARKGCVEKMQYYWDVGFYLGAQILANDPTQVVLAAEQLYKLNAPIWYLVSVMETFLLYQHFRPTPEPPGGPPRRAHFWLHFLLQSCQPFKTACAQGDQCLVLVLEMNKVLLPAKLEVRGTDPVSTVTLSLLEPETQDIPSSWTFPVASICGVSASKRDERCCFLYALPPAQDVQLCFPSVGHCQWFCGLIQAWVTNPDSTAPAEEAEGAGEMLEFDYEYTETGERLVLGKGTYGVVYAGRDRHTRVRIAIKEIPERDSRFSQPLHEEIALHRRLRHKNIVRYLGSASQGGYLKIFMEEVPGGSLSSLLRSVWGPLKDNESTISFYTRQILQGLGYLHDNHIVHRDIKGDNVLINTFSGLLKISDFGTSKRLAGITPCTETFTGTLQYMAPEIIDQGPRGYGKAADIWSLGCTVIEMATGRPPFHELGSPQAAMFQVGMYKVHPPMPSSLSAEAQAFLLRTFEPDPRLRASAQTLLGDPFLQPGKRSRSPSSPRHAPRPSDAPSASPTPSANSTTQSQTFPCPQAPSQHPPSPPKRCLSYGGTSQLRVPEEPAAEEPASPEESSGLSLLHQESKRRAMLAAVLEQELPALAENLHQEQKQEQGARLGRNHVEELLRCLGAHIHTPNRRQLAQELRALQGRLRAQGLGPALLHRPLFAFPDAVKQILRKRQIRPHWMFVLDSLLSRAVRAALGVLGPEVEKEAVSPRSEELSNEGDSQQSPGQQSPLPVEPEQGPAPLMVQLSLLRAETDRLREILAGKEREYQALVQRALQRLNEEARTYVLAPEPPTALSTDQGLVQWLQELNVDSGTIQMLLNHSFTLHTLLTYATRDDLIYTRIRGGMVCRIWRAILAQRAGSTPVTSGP
As to conditions: ASK2; 1 uM. Summed up: (§1)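 Each enzyme is treated with drug at 1 uM in DMSO, then signal is scaled between a positive control (0%) and DMSO (100%) to give % control. Kinases with % control under 35% are scored as inhibited.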

For test [2], the target named is T2, kinases of the scanMAX Kinase assay panel (Homo sapiens, UniProt P37173).
T2 construct: purchased DiscoverX Co. (contract measurement) scanMAX Kinase assay panel
T2 sequence (P37173 23-567): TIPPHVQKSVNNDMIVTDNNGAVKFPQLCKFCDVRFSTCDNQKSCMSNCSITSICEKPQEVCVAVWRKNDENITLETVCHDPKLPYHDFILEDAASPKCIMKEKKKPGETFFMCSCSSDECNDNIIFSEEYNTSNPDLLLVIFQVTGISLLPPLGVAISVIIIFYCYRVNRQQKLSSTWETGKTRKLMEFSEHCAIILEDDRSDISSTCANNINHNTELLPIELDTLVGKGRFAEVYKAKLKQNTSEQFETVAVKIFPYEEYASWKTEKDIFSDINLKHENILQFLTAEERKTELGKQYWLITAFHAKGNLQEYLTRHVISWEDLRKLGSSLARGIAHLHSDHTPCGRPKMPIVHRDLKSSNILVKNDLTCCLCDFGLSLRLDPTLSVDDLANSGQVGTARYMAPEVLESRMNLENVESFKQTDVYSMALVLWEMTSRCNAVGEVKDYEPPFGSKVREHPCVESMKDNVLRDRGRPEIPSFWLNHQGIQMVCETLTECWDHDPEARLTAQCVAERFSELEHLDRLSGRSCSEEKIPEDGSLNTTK
As to conditions: kinase TGFBR2; 1 uM in DMSO. Summed up:
as §1

In test [3] the target is T3, kinases of the scanMAX Kinase assay panel (Homo sapiens, UniProt P48729).
T3 construct: purchased DiscoverX Co. (contract measurement) scanMAX Kinase assay panel
T3 sequence (P48729 whole entry): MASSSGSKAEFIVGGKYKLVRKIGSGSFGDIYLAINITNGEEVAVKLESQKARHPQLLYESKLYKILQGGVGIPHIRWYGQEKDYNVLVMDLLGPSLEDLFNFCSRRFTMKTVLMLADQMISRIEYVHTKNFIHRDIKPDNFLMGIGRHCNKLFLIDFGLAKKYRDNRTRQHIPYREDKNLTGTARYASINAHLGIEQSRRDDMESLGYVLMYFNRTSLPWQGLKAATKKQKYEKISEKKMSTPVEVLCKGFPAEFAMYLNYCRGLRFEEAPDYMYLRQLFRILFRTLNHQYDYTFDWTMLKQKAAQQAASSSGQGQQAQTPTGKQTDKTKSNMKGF
As to conditions: CSNK1A1; 1 uM. Summed up:
as §1

The target of test [4] is T4, kinases of the scanMAX Kinase assay panel (Homo sapiens, UniProt Q00537).
T4 construct: purchased DiscoverX Co. (contract measurement) scanMAX Kinase assay panel
T4 sequence (Q00537 whole entry): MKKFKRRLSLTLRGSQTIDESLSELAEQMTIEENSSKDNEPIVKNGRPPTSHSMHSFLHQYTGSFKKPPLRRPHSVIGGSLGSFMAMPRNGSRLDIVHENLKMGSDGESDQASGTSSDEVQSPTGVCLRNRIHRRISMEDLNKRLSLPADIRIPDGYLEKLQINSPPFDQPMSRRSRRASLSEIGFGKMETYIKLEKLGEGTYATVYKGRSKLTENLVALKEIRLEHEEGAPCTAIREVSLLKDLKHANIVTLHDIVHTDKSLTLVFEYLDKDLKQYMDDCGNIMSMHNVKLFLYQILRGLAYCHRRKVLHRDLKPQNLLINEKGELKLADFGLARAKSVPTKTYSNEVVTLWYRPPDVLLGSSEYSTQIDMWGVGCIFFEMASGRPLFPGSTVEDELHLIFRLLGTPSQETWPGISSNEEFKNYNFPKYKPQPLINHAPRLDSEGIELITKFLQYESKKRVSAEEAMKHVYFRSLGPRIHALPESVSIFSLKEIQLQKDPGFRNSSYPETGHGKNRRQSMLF
As to conditions: PCTK2; 1 uM. Summed up:
as §1

The target of test [5] is T5, kinases of the scanMAX Kinase assay panel (Homo sapiens, UniProt Q5S007).
T5 construct: purchased DiscoverX Co. (contract measurement) scanMAX Kinase assay panel
As to conditions: LRRK2; 1 uM. Summed up:
as §1

Test [6] deals with T6, kinases of the scanMAX Kinase assay panel (Homo sapiens, UniProt Q9BYT3).
T6 construct: purchased DiscoverX Co. (contract measurement) scanMAX Kinase assay panel
T6 sequence (Q9BYT3 whole entry): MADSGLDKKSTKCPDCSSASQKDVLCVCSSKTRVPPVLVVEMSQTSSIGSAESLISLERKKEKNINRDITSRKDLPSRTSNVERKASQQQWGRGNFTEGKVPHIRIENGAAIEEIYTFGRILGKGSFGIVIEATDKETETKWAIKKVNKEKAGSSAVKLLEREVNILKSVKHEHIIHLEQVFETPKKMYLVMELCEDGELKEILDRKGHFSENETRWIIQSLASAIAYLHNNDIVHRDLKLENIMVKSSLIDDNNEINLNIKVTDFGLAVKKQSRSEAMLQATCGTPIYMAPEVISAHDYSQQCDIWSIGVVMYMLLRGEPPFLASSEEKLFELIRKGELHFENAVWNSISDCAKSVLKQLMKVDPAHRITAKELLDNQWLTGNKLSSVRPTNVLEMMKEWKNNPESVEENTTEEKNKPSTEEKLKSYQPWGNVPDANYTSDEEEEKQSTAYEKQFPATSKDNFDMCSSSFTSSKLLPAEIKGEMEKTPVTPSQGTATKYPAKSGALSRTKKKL
As to conditions: kinase STK33; 1 uM in DMSO. Summed up:
as §1

Test [7] concerns the target T7, kinases of the scanMAX Kinase assay panel (Homo sapiens, UniProt Q9H2G2).
T7 construct: purchased DiscoverX Co. (contract measurement) scanMAX Kinase assay panel
As to conditions: kinase SLK; 1 uM in DMSO. Summed up: as §1

Test [8] concerns the target T8, kinases of the scanMAX Kinase assay panel (Homo sapiens, UniProt Q9UM73, C1156Y).
T8 construct: purchased DiscoverX Co. (contract measurement) scanMAX Kinase assay panel
As to conditions: ALK(C1156Y); 1 uM. Summed up: as §1

The target of test [9] is T9, kinases of the scanMAX Kinase assay panel (Homo sapiens, UniProt Q9Y2H9).
T9 construct: purchased DiscoverX Co. (contract measurement) scanMAX Kinase assay panel
T9 sequence (Q9Y2H9 whole entry): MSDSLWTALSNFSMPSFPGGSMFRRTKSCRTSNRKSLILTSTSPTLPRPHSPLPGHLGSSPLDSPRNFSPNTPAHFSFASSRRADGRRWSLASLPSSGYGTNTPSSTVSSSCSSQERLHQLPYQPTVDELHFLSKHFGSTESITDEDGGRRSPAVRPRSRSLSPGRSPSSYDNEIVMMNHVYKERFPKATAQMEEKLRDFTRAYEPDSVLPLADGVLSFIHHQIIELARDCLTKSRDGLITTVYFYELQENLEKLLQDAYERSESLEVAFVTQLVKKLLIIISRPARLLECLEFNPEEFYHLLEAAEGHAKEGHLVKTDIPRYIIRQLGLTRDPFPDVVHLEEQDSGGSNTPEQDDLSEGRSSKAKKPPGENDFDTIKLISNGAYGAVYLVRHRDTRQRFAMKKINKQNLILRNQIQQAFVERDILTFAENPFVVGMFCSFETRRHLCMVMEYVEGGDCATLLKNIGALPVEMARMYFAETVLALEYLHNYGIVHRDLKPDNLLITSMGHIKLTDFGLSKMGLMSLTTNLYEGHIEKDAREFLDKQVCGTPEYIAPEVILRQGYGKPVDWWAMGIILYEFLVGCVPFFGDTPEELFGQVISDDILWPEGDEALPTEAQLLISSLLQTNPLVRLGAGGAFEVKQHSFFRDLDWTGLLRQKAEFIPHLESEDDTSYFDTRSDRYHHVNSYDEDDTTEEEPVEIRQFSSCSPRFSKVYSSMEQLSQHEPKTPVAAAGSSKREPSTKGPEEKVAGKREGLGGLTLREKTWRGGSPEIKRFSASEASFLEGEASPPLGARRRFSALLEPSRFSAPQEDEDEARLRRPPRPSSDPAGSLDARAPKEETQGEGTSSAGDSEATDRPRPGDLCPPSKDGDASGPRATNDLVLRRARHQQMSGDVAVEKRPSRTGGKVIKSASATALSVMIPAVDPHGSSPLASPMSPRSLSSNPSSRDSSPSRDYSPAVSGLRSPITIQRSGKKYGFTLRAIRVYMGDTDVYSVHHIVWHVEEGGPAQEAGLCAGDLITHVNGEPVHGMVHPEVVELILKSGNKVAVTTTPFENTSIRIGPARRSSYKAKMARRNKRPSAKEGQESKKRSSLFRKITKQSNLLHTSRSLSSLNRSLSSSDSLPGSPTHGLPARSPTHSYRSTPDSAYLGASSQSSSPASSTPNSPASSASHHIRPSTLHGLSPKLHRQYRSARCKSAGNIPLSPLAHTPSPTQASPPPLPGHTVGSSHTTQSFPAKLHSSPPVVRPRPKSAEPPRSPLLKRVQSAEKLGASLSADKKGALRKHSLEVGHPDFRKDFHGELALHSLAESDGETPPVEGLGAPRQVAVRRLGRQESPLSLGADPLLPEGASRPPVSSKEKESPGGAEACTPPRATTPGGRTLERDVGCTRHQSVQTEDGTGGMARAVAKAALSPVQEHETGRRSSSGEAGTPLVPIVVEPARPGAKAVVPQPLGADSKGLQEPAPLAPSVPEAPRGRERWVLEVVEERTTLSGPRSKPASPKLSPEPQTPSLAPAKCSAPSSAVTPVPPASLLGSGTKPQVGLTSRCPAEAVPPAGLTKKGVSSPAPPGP
As to conditions: MAST1; 1 uM. Summed up: as §1

T8 sequence (Q9UM73 19-1620 C1156Y): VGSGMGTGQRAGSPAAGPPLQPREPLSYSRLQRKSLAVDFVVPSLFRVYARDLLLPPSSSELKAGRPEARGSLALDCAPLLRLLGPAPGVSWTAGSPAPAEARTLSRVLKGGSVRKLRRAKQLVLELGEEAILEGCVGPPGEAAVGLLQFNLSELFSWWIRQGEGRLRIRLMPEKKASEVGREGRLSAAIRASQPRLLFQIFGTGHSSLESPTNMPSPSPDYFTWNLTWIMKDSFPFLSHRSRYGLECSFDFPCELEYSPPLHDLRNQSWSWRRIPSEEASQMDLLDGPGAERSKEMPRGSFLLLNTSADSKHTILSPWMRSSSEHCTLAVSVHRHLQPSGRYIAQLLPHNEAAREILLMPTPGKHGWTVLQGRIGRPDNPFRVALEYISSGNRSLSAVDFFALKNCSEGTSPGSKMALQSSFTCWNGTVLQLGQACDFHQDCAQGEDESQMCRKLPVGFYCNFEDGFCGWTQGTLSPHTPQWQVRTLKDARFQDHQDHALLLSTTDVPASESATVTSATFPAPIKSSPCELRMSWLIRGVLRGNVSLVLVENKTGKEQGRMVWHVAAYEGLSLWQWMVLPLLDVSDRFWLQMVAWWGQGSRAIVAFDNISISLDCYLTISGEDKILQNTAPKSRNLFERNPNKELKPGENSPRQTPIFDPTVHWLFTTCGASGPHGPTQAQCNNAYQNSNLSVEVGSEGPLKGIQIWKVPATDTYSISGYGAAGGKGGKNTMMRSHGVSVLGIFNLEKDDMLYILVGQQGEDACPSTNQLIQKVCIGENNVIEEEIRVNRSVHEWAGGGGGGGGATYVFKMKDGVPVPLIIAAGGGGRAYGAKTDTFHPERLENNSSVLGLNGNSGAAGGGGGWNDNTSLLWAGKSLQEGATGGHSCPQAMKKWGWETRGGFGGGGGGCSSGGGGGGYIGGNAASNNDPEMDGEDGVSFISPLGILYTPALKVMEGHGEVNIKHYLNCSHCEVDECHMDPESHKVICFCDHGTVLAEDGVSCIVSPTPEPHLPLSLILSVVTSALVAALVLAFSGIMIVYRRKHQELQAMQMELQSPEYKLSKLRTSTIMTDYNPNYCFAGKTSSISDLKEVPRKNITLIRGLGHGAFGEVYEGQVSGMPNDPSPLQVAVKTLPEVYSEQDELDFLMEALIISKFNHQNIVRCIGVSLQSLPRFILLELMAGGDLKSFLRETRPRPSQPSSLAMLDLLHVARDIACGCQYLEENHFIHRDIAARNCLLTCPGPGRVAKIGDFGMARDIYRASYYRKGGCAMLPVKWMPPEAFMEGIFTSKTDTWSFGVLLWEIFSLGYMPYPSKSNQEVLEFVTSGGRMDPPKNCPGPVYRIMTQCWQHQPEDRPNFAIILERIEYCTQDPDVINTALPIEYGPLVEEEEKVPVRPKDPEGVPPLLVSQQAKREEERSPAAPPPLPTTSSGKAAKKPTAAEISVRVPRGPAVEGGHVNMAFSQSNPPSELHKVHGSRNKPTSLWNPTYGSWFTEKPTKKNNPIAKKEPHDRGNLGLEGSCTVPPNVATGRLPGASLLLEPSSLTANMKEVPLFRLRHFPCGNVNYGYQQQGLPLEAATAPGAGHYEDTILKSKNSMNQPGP

Consider `CC1(Nc2nc(Nc3cnn([C@H]4CCN(C5COC5)C[C@@H]4F)c3Cl)nc3[nH]cc(C#N)c23)CC1` [Example 52, 2-((5-chloro-1-((3S,4S)-3-fluoro-1-(oxetane-3-yl)piperidine-4-yl)-1H-pyrazole-4-yl)amino)((1-methylcyclopropyl)amino)-7H-pyrrolo[2,3-d]pyrimidine-5-carbonitrile], for which the remaining binding at 1 µM in [1] came to 11%; in [2], 100%; in [3], 1.6%; in [4], 88%; in [5], 0%; in test [6], 4%. Besides, the remaining binding at 1 µM in test [7] came out at 13%; in test [8] it was 0.8%; in [9] it was 74%.
For `CCNc1nc(Nc2ccc(C(=O)N3CCC(N4CCOCC4)CC3)cc2OC)nc2[nH]cc(C(F)(F)F)c12` [Example 104, (4-((4-(ethylamino)-5-(trifluoromethyl)-7H-pyrrolo[2,3-d]pyrimidine-2-yl)amino)-3-methoxyphenyl)(4-morpholinopiperidine-1-yl)methanone], the remaining binding at 1 µM in test [1] was determined as 92%; in test [2] it was 96%; in test [3], 56%; in test [4], 99%; in test [5], 1.2%; in [6], 13%. Moreover, the remaining binding at 1 µM in test [7] was determined as 97%; in [8] it was 16%; in test [9], 72%.
As for `CNc1nc(Nc2ccc(C(=O)N3CCOCC3)cc2OC)nc2[nH]cc(C#N)c12` [Example 1, 2-((2-methoxy-4-(morpholine-4-carbonyl)phenyl)amino)-4-(methylamino)-7H-pyrrolo[2,3-d]pyrimidine-5-carbonitrile], the remaining binding at 1 µM in [1] amounted to 56%; in [2], 82%; in test [3], 19%; in test [4], 98%; in test [5] it was 0%; in [6], 18%. In addition, the values for the remaining binding at 1 µM in [7], in test [8] and in [9] were 100%, 9.3% and 100%, respectively.
